{"source": "patent US20120172302A1", "about": "“COMPOSITION FOR THE TREATMENT OF BENIGN PROSTATE HYPERPLASIA” (priority 2009, published 2012)", "key": {"testosterone": {"tested_on": "testosterone", "assay": "Serum testosterone concentration-time profile (LC-MS/MS), clinical trial", "assay_type": "in vivo, men", "conditions": "for Mean time to second return of testosterone to baseline interval (after the second administration): only hypothetical (calculated, not measured)"}, "patients with BPH": {"tested_on": "patients with BPH", "assay": "Post-void residual volume by transabdominal ultrasound, clinical trial", "assay_type": "in vivo, men", "conditions": "for Mean post-void residual volume: all treatment groups", "experimental": "2] Efficacy Endpoints—the measured Peak Urinary Flow, Post-void Residual Volume, and Prostate Volume.\nThe Post-void Residual Volume (PVR) was evaluated by transabdominal ultrasound. The urine bladder was sonicated from two directions perpendicular to one another resulting in three cursor positions set by the urologist. The volume was calculated automatically. The investigations were performed by urologists by methods known in the art."}, "[1]": {"conditions": "16+16 mg group, after the first administration"}, "[2]": {"conditions": "16+16 mg group, after the second administration"}, "[3]": {"conditions": "32+32 mg group, after the first administration"}, "[4]": {"conditions": "32+32 mg group, after the second administration"}, "[5]": {"conditions": "first dose of the 32+32 mg group combined with the single dose 32 mg data"}}, "note": "Square brackets hold non-standard residues; d marks the D form. Peptide text beside a SMILES is read from it. * marks the point of attachment. dPhe(4-NHCONH2) = NC(=O)Nc1ccc(C[C@@H](N)C(=O)O)cc1; Dihydroorotyl(S) = O=C1C[C@@H](C(=O)*)NC(=O)N1; dPhe(4-Cl) = N[C@H](Cc1ccc(Cl)cc1)C(=O)O; Phe(4-NH2) = Nc1ccc(C[C@H](N)C(=O)O)cc1; d2Nal = N[C@H](Cc1ccc2ccccc2c1)C(=O)O; Lys(iPr) = CC(C)NCCCC[C@H](N)C(=O)O; d3Pal = N[C@H](Cc1cccnc1)C(=O)O"}
{"smiles": "CC(=O)N[C@H](Cc1ccc2ccccc2c1)C(=O)N[C@H](Cc1ccc(Cl)cc1)C(=O)N[C@H](Cc1cccnc1)C(=O)N[C@@H](CO)C(=O)N[C@@H](Cc1ccc(NC(=O)[C@@H]2CC(=O)NC(=O)N2)cc1)C(=O)N[C@H](Cc1ccc(NC(N)=O)cc1)C(=O)N[C@@H](CC(C)C)C(=O)N[C@@H](CCCCNC(C)C)C(=O)N1CCC[C@H]1C(=O)N[C@H](C)C(N)=O", "note": "[Degarelix, D-Alaninamide, N-acetyl-3-(2-naphthalenyl)-D-alanyl-4-chloro-D-phenylalanyl-3-(3-pyridinyl)-D-alanyl-L-seryl-4-[[[(4S)-hexahydro-2,6-dioxo-4-pyrimidinyl]carbonyl]amino]-L-phenylalanyl-4-[(aminocarbonyl)amino]-D-phenylalanyl-L leucyl-N6-(1-methylethyl)-L-lysyl-L-prolyl] (Ac-[d2Nal][dPhe(4-Cl)][d3Pal]S[Phe(4-NH2)](Dihydroorotyl(S))[dPhe(4-NHCONH2)]L[Lys(iPr)]P[dA]-NH2)", "values": [{"measurement": "Duration of castration (testosterone below 0.5 ng/mL)", "setting": "testosterone; 16+16 mg administration, the 2 castrated patients", "value": "less than 2 days"}, {"measurement": "Mean time for first return of testosterone to baseline interval after the first administration", "setting": "testosterone; 16+16 mg group", "value": "6.1 (SD=2.8) days"}, {"measurement": "Number of patients with testosterone below the castration level 0.5 ng/mL at one or more time-points", "setting": "testosterone; 16+16 mg group", "value": 2, "unit": "patients"}, {"measurement": "Percentage of patients with testosterone below the castration level 0.5 ng/mL at one or more time-points", "setting": "testosterone; 16+16 mg group", "value": 15, "unit": "%"}, {"measurement": "Testosterone greatest change from baseline", "setting": "testosterone; 16+16 mg group", "value": -4.0, "unit": "ng/mL"}, {"measurement": "Mean minimal value of testosterone (Cnadir)", "setting": "testosterone; [1]", "value": 1.4, "unit": "ng/mL"}, {"measurement": "Mean time of testosterone Cnadir (tnadir)", "setting": "testosterone; [1]", "value": 1.1, "unit": "days"}, {"measurement": "Mean minimal value of testosterone (Cnadir)", "setting": "testosterone; [2]", "value": 2.0, "unit": "ng/mL"}, {"measurement": "Mean time of testosterone Cnadir (tnadir)", "setting": "testosterone; [2]", "value": 4.0, "unit": "days"}, {"measurement": "Lowest mean testosterone level", "setting": "testosterone; 16+16 mg group, on Day 1", "value": 1.4, "unit": "ng/mL"}, {"measurement": "Mean time to second return of testosterone to baseline interval (after the second administration)", "setting": "testosterone; 16+16 mg group", "value": "19.5 (SD=33.9) days"}, {"measurement": "Mean area of testosterone concentrations below 0.5 ng/mL", "setting": "testosterone; 16+16 mg group, range 0.0-0.0", "value": 0.0, "unit": "ng·days/mL"}, {"measurement": "Time for testosterone level to recover above 0.5 ng/mL", "setting": "testosterone; 16+16 and 32 mg groups, 4 of the 5 patients", "value": "≤ 2", "unit": "days"}, {"measurement": "Time for testosterone level to recover above 0.5 ng/mL", "setting": "testosterone; 16+16 and 32 mg groups, the remaining patient of 5", "value": "≤ 4", "unit": "days"}, {"measurement": "Mean time for first return of testosterone to baseline interval after the first administration", "setting": "testosterone; 32+32 mg group", "value": "9.1 (SD=2.6) days"}, {"measurement": "Number of patients not suppressed below 0.5 ng/mL after the first administration but reaching this level after the second injection", "setting": "testosterone; 32+32 mg group", "value": "Five"}, {"measurement": "Number of patients with testosterone below the castration level 0.5 ng/mL at one or more time-points", "setting": "testosterone; 32+32 mg group", "value": 9, "unit": "patients"}, {"measurement": "Number of subjects that had not regained testosterone levels >0.5 ng/mL at Day 42", "setting": "testosterone; 32+32 mg group", "value": "Three"}, {"measurement": "Percentage of patients with testosterone below the castration level 0.5 ng/mL at one or more time-points", "setting": "testosterone; 32+32 mg group", "value": 75, "unit": "%"}, {"measurement": "Testosterone greatest change from baseline", "setting": "testosterone; 32+32 mg group", "value": -4.1, "unit": "ng/mL"}, {"measurement": "Time for testosterone level to recover above 0.5 ng/mL", "setting": "testosterone; 32+32 mg group, after first administration, 3 of 4 patients", "value": "≤ 2", "unit": "days"}, {"measurement": "Mean minimal value of testosterone (Cnadir)", "setting": "testosterone; [3]", "value": 0.6, "unit": "ng/mL"}, {"measurement": "Mean time of testosterone Cnadir (tnadir)", "setting": "testosterone; [3]", "value": 3.2, "unit": "days"}, {"measurement": "Mean minimal value of testosterone (Cnadir)", "setting": "testosterone; [4]", "value": 0.4, "unit": "ng/mL"}, {"measurement": "Mean time of testosterone Cnadir (tnadir)", "setting": "testosterone; [4]", "value": 4.3, "unit": "days"}, {"measurement": "Lowest mean testosterone level", "setting": "testosterone; 32+32 mg group, after the second administration, on Day 17", "value": 0.4, "unit": "ng/mL"}, {"measurement": "Number of patients with testosterone below 0.5 ng/mL after the first degarelix administration", "setting": "testosterone; 32+32 mg group, of the 9 patients with testosterone <=0.5 ng/mL", "value": "Four"}, {"measurement": "Mean time to second return of testosterone to baseline interval (after the second administration)", "setting": "testosterone; 32+32 mg group", "value": "64.2 (SD=83.5) days"}, {"measurement": "Mean area of testosterone concentrations below 0.5 ng/mL", "setting": "testosterone; 32+32 mg group, range 0.0-15.3", "value": 2.8, "unit": "ng·days/mL"}, {"measurement": "Mean testosterone level", "setting": "testosterone; Day 42, 32 mg group", "value": 5.3, "unit": "ng/mL"}, {"measurement": "Mean testosterone level", "setting": "testosterone; Day 42, 64 mg group", "value": 3.0, "unit": "ng/mL"}, {"measurement": "Mean testosterone level", "setting": "testosterone; Day 42, 16+16 mg group", "value": 4.5, "unit": "ng/mL"}, {"measurement": "Mean testosterone level", "setting": "testosterone; Day 42, 32+32 mg group", "value": 2.7, "unit": "ng/mL"}, {"measurement": "Number of patients with testosterone below the castration level 0.5 ng/mL at one or more time-points", "setting": "testosterone; all groups, of the 50 patients, up to Day 42", "value": 22, "unit": "patients"}, {"measurement": "Mean testosterone level", "setting": "testosterone; baseline, 32 mg group", "value": 5.2, "unit": "ng/mL"}, {"measurement": "Mean testosterone level", "setting": "testosterone; baseline, 64 mg group", "value": 5.2, "unit": "ng/mL"}, {"measurement": "Mean testosterone level", "setting": "testosterone; baseline, 16+16 mg group", "value": 5.5, "unit": "ng/mL"}, {"measurement": "Mean testosterone level", "setting": "testosterone; baseline, 32+32 mg group", "value": 4.5, "unit": "ng/mL"}, {"measurement": "Duration of castration (testosterone below 0.5 ng/mL)", "setting": "testosterone; first dose of the 32+32 mg group combined with single dose 32 mg, the 8 castrated patients, generally", "value": "2 to 4", "unit": "days"}, {"measurement": "Number of patients castrated (testosterone below 0.5 ng/mL)", "setting": "testosterone; [5]", "value": 8, "unit": "patients"}, {"measurement": "Percentage of patients castrated (testosterone below 0.5 ng/mL)", "setting": "testosterone; [5]", "value": 33, "unit": "%"}, {"measurement": "Testosterone area below and time to return to the baseline interval, total 64 mg vs total 32 mg", "setting": "testosterone; groups given a total of 64 mg degarelix compared to the total dose 32 mg", "value": "more than 2 fold"}, {"measurement": "Mean post-void residual volume", "setting": "patients with BPH; Day 14", "value": "decreased"}, {"measurement": "Number of patients with post-void residual volume decreased vs baseline", "setting": "patients with BPH; Day 42, all groups", "value": 33, "unit": "patients"}, {"measurement": "Number of patients with post-void residual volume increased vs baseline", "setting": "patients with BPH; Day 42, all groups", "value": 17, "unit": "patients"}, {"measurement": "Mean post-void residual volume", "setting": "patients with BPH; Day 42", "value": "lower than the baseline value"}]}
